Source: patent US20240301218A1, “Polymeric Antifouling Coating with Antimicrobial Peptides” (THE UNIVERSITY OF BRITISH COLUMBIA, priority 2021, published 2024)
Values after ≈ are worked out from the molar mass of the structure shown. Where two headings read alike, the source gives them in different places. Residues, ends and D or L forms follow the SMILES beside them. No end group written: not given here.

Columns and labels:
[1] = system: S. saprophyticus (ATCC 15305); assay: 96-well plate screening of surface conjugated AMPs for biofilm inhibition; type: cell-based; conditions: AMP tethered on BA coating, polypropylene 96-well plate, 24 h, vs uncoated pp
Procedure: (§1) Screening and Identification of Surface Conjugated AMPs with Anti-Biofilm Activity on a 96-Well Plate Bioluminescence-tagged bacterial strains used in this study included S. aureus (Xen36), P. aeruginosa (PAO1.lux), E. coli (E38.lux), and S. saprophyticus (ATCC 15305). Bacteria were cultured in LB, with shaking at 250 rpm, at 37° C. Bacterial growth was monitored using a spectrophotometer at the optical density of 600 nm (OD600). S. aureus Xen36 was purchased from PerkinElmer Inc.™ while P. aeruginosa PAO1.lux and E. coli E38.lux were generated by conjugating in plasmids that constitutively-expressed lux reporter genes^[40]. The biofilm inhibitory activity of AMPs conjugated onto coated polypropylene surfaces were evaluated in a static microtitre plate assay as previously described with some modifications^[41]. For all experiments, 96-well Costar™ polypropylene plates (Corning™) were used. An overnight culture of selected bacterial strains in LB was diluted to an OD600=0.01 in TSB or basal medium 2 (BM2) supplemented with 0.1% or 0.4% glucose and 0.5 mM MgSO4, (the biofilm growth medium for different bacteria is listed in TABLE 1).
(§2) For inhibition experiments, 100 μL of the diluted overnight culture was added to each well in the plate coated with control coating and AMP coating, respectively. After overnight growth under static condition at 37° C., planktonic cells were removed, adhered biomass rinsed three times with distilled water and subsequently the remaining adhered total biomass was quantified by measuring the luminescence (Total white light) using the Synergy H1™ multimode microtitre plate reader (BioTek™). The remaining adhered S. saprophyticus biomass was quantified using the crystal violet (CV) staining. Briefly, each well was added and incubated with 125 μL of 0.1% (v/v) CV solution for 30 minutes at room temperature with moderate shaking. Then, CV was discarded, and each well was rinsed three times with distilled water. The remaining CV stain was resuspended in 150 μL of 70% ethanol for 30 minutes at room temperature with moderate shaking and then quantified by measuring OD59, using the Synergy H1™ multimode microplate plate reader (BioTek™). The percent biofilm inhibition was calculated in relation to the amount of biofilm grown in the absence of the coating (defined as 100%) and the media sterility control (defined as 0% growth). The experiment was repeated 3 times with 3 technical replicates per biological replicate.

[2] = system: P. aeruginosa (PAO1.lux); assay: as above; type: cell-based; conditions: AMP tethered on BA coating, polypropylene 96-well plate, vs uncoated pp
Procedure: as §1, §2

[3] = system: S. aureus (Xen36); assay: as above; type: cell-based; conditions: AMP tethered on BA coating, polypropylene 96-well plate, vs uncoated pp
Procedure: as §1, §2

[4] = system: E. coli
Description: (§3) Ultra-high molecular weight poly(N,N-dimethylacrylamide) (uhPDMA) and high molecular weight poly(N,N-dimethylacrylamide) (hPDMA) were synthesized by atom transfer radical polymerization 391. N-(3-Aminopropyl) methacrylamide hydrochloride (APMA) (98%) was purchased from Polysciences™, USA and was used as supplied. All other reagents including 1, 1, 4, 7, 10, 10-hexamethyl triethylene tetramine (HMTETA) (97%), Tris[2-(dimethylamino)ethyl]amine (Me6TREN) 97%, methyl 2-chloropropionate (97%), CuCl (99%), CuCl2 (99%), 1-thioglycerol (97%) were purchased from Sigma-Aldrich™ (Oakville, ON). A single-side-polished silicon wafer (University Wafer™, Boston, MA) deposited with titanium was prepared by e-beam evaporation of titanium. The process was progressed in a home-assembled Evaporator 2000™ system equipped with a quartz crystal microbalance to monitor the film thickness and a cryo pump to reach high-vacuum (10^−7-10^−6 Torr) condition. After deposition, the substrates were washed with Milli-Q water™, dried via a nitrogen gun, and stored for further usage. SurFlash™I.V. Catheter Cat. #SR*FF1451, #SR*FF2419 (14 Gauge and 24 Gauge) made of polyurethane (PU), were purchased from Terumo™. […] Pure products were finally characterized by analytical reverse phase high performance liquid chromatography (RP-HPLC) and liquid chromatography-mass spectrometry (LC-MS). The broth microdilution method with minor modifications for cationic peptides was used for measuring the MICs of peptides.

[5] = system: P. aeruginosa
Description: as §3

[6] = system: S. aureus
Description: as §3

[7] = system: S. saprophyticus
Description: as §3

[8] = system: E. coli (E38.lux); assay: 96-well plate screening of surface conjugated AMPs for biofilm inhibition; type: cell-based; conditions: AMP tethered on BA coating, polypropylene 96-well plate, vs uncoated pp
Procedure: as §1, §2

[9] = system: S. epidermidis; assay: Antimicrobial activity of BA-AMPs coating against planktonic bacteria; type: cell-based; conditions: MHB medium, 24 h, coated PP wells
Procedure: The uhPDMA was prepared at a concentration of 36 mg mL^−1 in sodium acetate buffer (50 mM, pH=5). Dopamine was freshly prepared at a concentration of 12 mg mL^−1 in sodium acetate buffer (50 mM, pH=5) before each experiment. Sodium periodate (NaIO4) was freshly prepared at a concentration of 28 mg mL-1 in sodium acetate buffer (50 mm, pH=5). The dopamine solution was then mixed with uhPDMA solution with a volume ratio of 1:5 (dopamine:uhPDMA). Sodium periodate solution was then added to generate a final concentration of uhPDMA at 30 mg mL^−1, dopamine at 2 mg mL^−1, and NaIO4 at 0.9 mg mL^−1. Mixed solution (200 μL) was added into the wells of 96-well polypropylene plate. The plate was placed onto a rocking platform with shaking at 50 rpm for 2 hr. The coated plate was then rinsed by Milli-Q™ water and dried for further characterization. Peptide solutions (200 μL, 0.25 mg/mL in 10 mM phosphate buffer, pH ˜8) were added into the wells and incubated for 24 h. The peptide-conjugated plate were rinsed with Milli-Q™ water thoroughly and dried under argon flow. […] After 24 hrs growth under shaking condition at room temperature, bacteria culture (100 μL) was transferred to sterile clear polystyrene plate and the optical density was read using UV-vis spectrometer at wavelength 595 nm. […]

Row | Molecule | reduction of biofilm formation [1] | reduction of biofilm formation [2] | reduction of biofilm formation [3] | MIC E. coli ([4]; soluble peptide) | MIC P. aeruginosa ([5]; soluble peptide) | MIC S. aureus ([6]; soluble peptide) | MIC S. saprophyticus ([7]; soluble peptide) | MIC E. coli [4] | MIC P. aeruginosa [5] | MIC S. aureus [6] | MIC S. saprophyticus [7] | reduction of biofilm formation [8] | killing of planktonic S. epidermidis [9]
1 | VRLIVAVRIWRR-NH2 [IDR-1018, VRLIVAVRIWRR-NH2] | 82.2% | 83.2% | 93.5% | 9.3 µg/mL | 64 µg/mL | 16 µg/mL | 2 µg/mL | – | – | – | – | – | –
2 | CC[C@@H](C)[C@@H](NC(=O)[C@@H](C)NC(=O)[C@@H](CCCNC(=N)N)NC(=O)[C@@H](Cc1c[nH]c2ccccc12)NC(=O)[C@@H](CCC(N)=O)NC(=O)[C@H](N)C(C)C)C(=O)N[C@H](CCCNC(=N)N)C(=O)N[C@@H](C(=O)N[C@H](CCCNC(=N)N)C(=O)N[C@@H](C(=O)N[C@@H](C(=O)N[C@H](CCCNC(=N)N)C(=O)N[C@H](CS)C(N)=O)[C@H](C)CC)C(C)C)C(C)C [DJK5C, vqwrairvrvirc-NH2] (HELM PEPTIDE1{[dV].[dQ].[dW].[dR].[dA].[dI].[dR].[dV].[dR].[dV].[dI].[dR].[dC].[am]}$$$$V2.0; N-terminus assumed) | ~100% | 99.1% | 95.1% | – | – | – | – | 4 µg/mL (≈ 2.42 µM) | 16 µg/mL (≈ 9.67 µM) | 16 µg/mL (≈ 9.67 µM) | 2 µg/mL (≈ 1.21 µM) | – | –
3 | ILVRWIRWRIQWC-NH2 [3002C, ILVRWIRWRIQWC-NH2] | – | 32.4% | 93.6% | – | – | – | – | 16 µg/mL | 128 µg/mL | 32 µg/mL | 8 µg/mL | – | –
4 | CC[C@@H](C)[C@@H](NC(=O)[C@@H](C)NC(=O)[C@@H](CCCNC(=N)N)NC(=O)[C@@H](Cc1c[nH]c2ccccc12)NC(=O)[C@@H](CCC(N)=O)NC(=O)[C@H](N)C(C)C)C(=O)N[C@H](CCCNC(=N)N)C(=O)N[C@@H](C(=O)N[C@H](CCCNC(=N)N)C(=O)N[C@@H](C(=O)N[C@@H](C(=O)N[C@H](CCCNC(=N)N)C(N)=O)[C@H](C)CC)C(C)C)C(C)C [DJK5, vqwrairvrvir] (HELM PEPTIDE1{[dV].[dQ].[dW].[dR].[dA].[dI].[dR].[dV].[dR].[dV].[dI].[dR].[am]}$$$$V2.0; N-terminus assumed) | 83.4% | – | 90.5% | – | – | – | – | 1.6 µg/mL (≈ 1.03 µM) | 16 µg/mL (≈ 10.3 µM) | 16 µg/mL (≈ 10.3 µM) | 2 µg/mL (≈ 1.29 µM) | – | –
5 | rivrvrairwqv (RIVRVRAIRWQV; HELM PEPTIDE1{[dR].[dI].[dV].[dR].[dV].[dR].[dA].[dI].[dR].[dW].[dQ].[dV].[am]}$$$$V2.0; N-terminus assumed; SMILES CC[C@@H](C)[C@@H](NC(=O)[C@H](N)CCCNC(=N)N)C(=O)N[C@@H](C(=O)N[C@H](CCCNC(=N)N)C(=O)N[C@@H](C(=O)N[C@H](CCCNC(=N)N)C(=O)N[C@H](C)C(=O)N[C@@H](C(=O)N[C@H](CCCNC(=N)N)C(=O)N[C@H](Cc1c[nH]c2ccccc12)C(=O)N[C@H](CCC(N)=O)C(=O)N[C@@H](C(N)=O)C(C)C)[C@H](C)CC)C(C)C)C(C)C) [RI-DJK5] | – | 76.2% | – | – | – | – | – | – | – | – | – | – | –
6 | RRWRIVVIRVRRC-NH2 [E6, RRWRIVVIRVRRC-NH2] | – | 98.2% | 93% | – | – | – | – | 8 µg/mL | 32 µg/mL | 64 µg/mL | 4 µg/mL | 91.8% | complete killing
7 | CC[C@H](C)[C@H](NC(=O)[C@H](CCCNC(=N)N)NC(=O)[C@H](Cc1c[nH]c2ccccc12)NC(=O)[C@H](CCCNC(=N)N)NC(=O)[C@@H](N)CCCCN)C(=O)N[C@@H](CCCNC(=N)N)C(=O)N[C@H](C(=O)N[C@@H](CCCNC(=N)N)C(=O)N[C@H](C(=O)N[C@H](C(=O)N[C@@H](CCCNC(=N)N)C(=O)N[C@@H](CCCCN)C(=O)NCCC(=O)NCCC(=O)N[C@@H](CS)C(N)=O)[C@@H](C)CC)C(C)C)C(C)C [Tet20LC, KRWRIRVRVIRK-bA-bA-C—NH2] (HELM PEPTIDE1{K.R.W.R.I.R.V.R.V.I.R.K.[bAla].[bAla].C.[am]}$$$$V2.0; N-terminus assumed) | ~100% | 100% | 100% | – | – | – | – | 4 µg/mL (≈ 2.09 µM) | 16 µg/mL (≈ 8.38 µM) | 64 µg/mL (≈ 33.5 µM) | 2 µg/mL (≈ 1.05 µM) | – | –
8 | KRWRIRVRVIRKC-NH2 [Tet20C, KRWRIRVRVIRKC-NH2] | ~100% | 99.6% | 98.8% | – | – | – | – | 4 µg/mL | 8 µg/mL | 64 µg/mL | 2 µg/mL | – | –
9 | vqwrrirvwvir (VQWRRIRVWVIR; HELM PEPTIDE1{[dV].[dQ].[dW].[dR].[dR].[dI].[dR].[dV].[dW].[dV].[dI].[dR].[am]}$$$$V2.0; N-terminus assumed; SMILES CC[C@@H](C)[C@@H](NC(=O)[C@@H](CCCNC(=N)N)NC(=O)[C@@H](CCCNC(=N)N)NC(=O)[C@@H](Cc1c[nH]c2ccccc12)NC(=O)[C@@H](CCC(N)=O)NC(=O)[C@H](N)C(C)C)C(=O)N[C@H](CCCNC(=N)N)C(=O)N[C@@H](C(=O)N[C@H](Cc1c[nH]c2ccccc12)C(=O)N[C@@H](C(=O)N[C@@H](C(=O)N[C@H](CCCNC(=N)N)C(N)=O)[C@H](C)CC)C(C)C)C(C)C) [DJK6] | 83.5% | 58.8% | – | – | – | – | – | – | – | – | – | – | –
